From patent US5166214A, “Use of imidazoles for the treatment of atherosclerosis” (priority 1990, dated 1992)

What was measured:
[1] = tested on: murine macrophage-like cell line J774.A1; test: Inhibition of cholesterol esterification in mammalian cells (macrophage assay); format: cell-based; conditions: J774.A1 macrophages loaded with ac-LDL, 14C-oleic acid; read-out: Cholesterol Esterification IC50
Method in brief: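 Murine J774.A1 macrophages at 37 °C received 34 μg acetylated human LDL in 10% FBS-DMEM from 24 h, compound in DMSO at 41 h, then a 0.1 mM 14C-oleic acid–BSA pulse from 43 to 45 h. Labelled cholesteryl ester was separated by TLC, counted and normalised to Lowry protein.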

[2] = tested on: hypercholesterolemic (cholesterol-fed) hamsters; test: Antihypercholesterolemic activity in cholesterol-fed hamsters; format: in vivo, hamster; conditions: two weeks; for Serum Cholesterol, Treated: mean ± SEM, n = 9-10; for Serum Cholesterol Decrease: vs control
Method: C. Assay of Antihypercholesterolemic Activity in Cholesterol-fed Hamsters
Inhibition of ACAT activity in the gut reduces the absorption of cholesterol in cholesterol-fed animals. Hamsters weighing approximately 100 g, were maintained on a diet supplemented with 0.8% cholesterol. The treatment group received 1-100 mg/kg/day, p.o., of the test compound dissolved in 500 μl of corn oil for a period of two weeks. The control group were pair-fed to the treatment group and were dosed with 500 μl of the corn oil vehicle. At sacrifice, the hamsters were anesthetized with CO2 and exsanguinated via cardiac puncture. Total serum cholesterol was determined on a Du Pont aca® IV. The data were expressed in terms of mg cholesterol per 100 ml of serum (mg %).

[3] = target: T1, Acyl-CoA: Cholesterol Acyltransferase (ACAT) (Rattus norvegicus, UniProt Q7TQM4); test: Inhibition of acyl-CoA: cholesterol acyltransferase (ACAT) in hepatic microsomes (in vitro); format: biochemical, rat (male Sprague Dawley); conditions: rat hepatic microsomes, 75 μM 14C-oleoyl-CoA, pH 7.4, 37° C.; read-out: In Vitro ACAT IC50
T1 construct: Microsomes were obtained by differential centrifugation; from tissue; host or cells: liver microsomes of male Sprague Dawley rats
T1 sequence (Q7TQM4 1-524): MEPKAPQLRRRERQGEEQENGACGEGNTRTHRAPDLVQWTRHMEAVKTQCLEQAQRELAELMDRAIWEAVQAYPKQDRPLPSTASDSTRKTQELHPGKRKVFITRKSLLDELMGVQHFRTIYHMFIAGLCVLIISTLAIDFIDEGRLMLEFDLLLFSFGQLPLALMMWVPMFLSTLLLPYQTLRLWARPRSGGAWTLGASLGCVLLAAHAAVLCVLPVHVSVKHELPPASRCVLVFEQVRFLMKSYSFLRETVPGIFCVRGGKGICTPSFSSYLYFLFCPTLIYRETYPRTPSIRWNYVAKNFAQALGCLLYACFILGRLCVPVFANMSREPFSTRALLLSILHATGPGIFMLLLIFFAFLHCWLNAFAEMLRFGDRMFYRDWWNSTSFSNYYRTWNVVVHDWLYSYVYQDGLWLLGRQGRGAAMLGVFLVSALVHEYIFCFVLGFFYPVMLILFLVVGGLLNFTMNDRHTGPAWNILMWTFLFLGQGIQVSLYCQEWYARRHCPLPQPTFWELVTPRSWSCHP
Method in brief: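 Liver microsomes from fasted male Sprague Dawley rats (200 μg protein) were preincubated with compound in DMSO for 15 min at 37 °C in 0.1M phosphate, pH 7.4, with 1 mM glutathione. Reaction started with 75 μM 14C-oleoyl-CoA and stopped after 10 min; cholesteryl ester isolated by TLC and counted by scintillation.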

## CCCCCCCN(CCCCCSc1nc(-c2ccccc2)c(-c2ccccc2)[nH]1)C(=O)Nc1ccc(F)cc1F [Example 1, N'-(2,4-difluorophenyl)-N-[5-(4,5-diphenyl-1H-imidazol-2-ylthio)pentyl]-N-heptylurea]
[1]
  IC50: 1000 nM
[2]; 1 mg/kg/day p.o., control 400 ± 25
  Serum Cholesterol, Treated: 295 ± 12 mg %
[2]; 1 mg/kg/day p.o.
  Serum Cholesterol Decrease: 26%
[2]; 3 mg/kg/day p.o., control 381 ± 17
  Serum Cholesterol, Treated: 279 ± 16 mg %
[2]; 3 mg/kg/day p.o.
  Serum Cholesterol Decrease: 27%
[2]; 10 mg/kg/day p.o., control 371 ± 7
  Serum Cholesterol, Treated: 201 ± 12 mg %
[2]; 10 mg/kg/day p.o.
  Serum Cholesterol Decrease: 46%
[2]; 30 mg/kg/day p.o., control 368 ± 15
  Serum Cholesterol, Treated: 197 ± 11 mg %
[2]; 30 mg/kg/day p.o.
  Serum Cholesterol Decrease: 46%
[2]; 100 mg/kg/day p.o., control 400 ± 17
  Serum Cholesterol, Treated: 62 ± 8 mg %
[2]; 100 mg/kg/day p.o.
  Serum Cholesterol Decrease: 60%

## CCCCCCCN(CCCCCSc1nc(-c2ccccc2)c(-c2ccccc2)[nH]1)C(=O)Nc1cccc(F)c1 [Example 53, N-[5-(4,5-diphenyl-1H-imidazol-2-ylthio)pentyl]-N'-(3-fluorophenyl)-N-heptylurea]
[3]
  IC50: 17 nM
[1]
  IC50: 400 nM

## CCCCCCCN(CCCCCSc1nc(-c2ccc(N(C)C)cc2)c(-c2ccc(N(C)C)cc2)[nH]1)C(=O)Nc1ccc(F)cc1F [Example 198]
[3]
  IC50: 40 nM
[1]
  IC50: 60 nM

## CCCCCCCN(CCCCCSc1nc(-c2ccccn2)c(-c2ccccn2)[nH]1)C(=O)Nc1ccc(F)cc1F [Example 194]
[3]
  IC50: 1900 nM
[1]
  IC50: 4100 nM

## CCCCCCCN(CCCCCSc1nc(-c2ccccc2)c(-c2ccccc2)[nH]1)C(=O)CCC [Example 341, N-[5-(4,5-diphenyl-1H-imidazol-2-ylthio)pentyl]-N-heptylbutanamide]
[3]
  IC50: 3 nM
[1]
  IC50: 100 nM

## CCCCCCCN(CCCCCSc1nc(-c2ccc(OC)cc2)c(-c2ccc(OC)cc2)[nH]1)C(=O)Cc1c(F)c(F)c(F)c(F)c1F [Example 350]
[3]
  IC50: 605 nM
[1]
  IC50: 50 nM

## CCCN(CCSc1nc(-c2ccccc2)c(-c2ccccc2)[nH]1)C(=O)Nc1ccc(F)cc1F [Example 9, N'-(2.4-difluorophenyl)-N[-2-(4,5-diphenyl-1H-imidazol-2-ylthio)ethyl]-N-propylurea]
[3]
  IC50: 930 nM
[1]
  IC50: 11200 nM

## CCCCCCCN(CCCCCSc1ncc[nH]1)C(=O)Nc1ccc(F)cc1F [Example 186]
[3]
  IC50: 2850 nM
[1]
  IC50: 6200 nM

## CCCCCCCN(CCCCCSc1nc(-c2ccc(O)cc2)c(-c2ccc(O)cc2)[nH]1)C(=O)Nc1ccc(F)cc1F [Example 209, N-[5-[4,5-bis(4-hydroxyphenyl)-1H-imidazol-2-ylthio]pentyl]-N'-(2,4-difluorophenyl)-N-heptylurea]
[3]
  IC50: 1400 nM
[1]
  IC50: 4800 nM

## COc1ccc(-c2nc(SCCCCCN(C)C(=O)Nc3ccc(F)cc3F)[nH]c2-c2ccc(OC)cc2)cc1 [Example 204]
[3]
  IC50: 500 nM
[1]
  IC50: 400 nM
